Results as given in the Kinase Knowledgebase extract (Sharma et al. 2016).

Target: EGFR (UniProt P00533)
Sequence (P00533 whole entry, looked up): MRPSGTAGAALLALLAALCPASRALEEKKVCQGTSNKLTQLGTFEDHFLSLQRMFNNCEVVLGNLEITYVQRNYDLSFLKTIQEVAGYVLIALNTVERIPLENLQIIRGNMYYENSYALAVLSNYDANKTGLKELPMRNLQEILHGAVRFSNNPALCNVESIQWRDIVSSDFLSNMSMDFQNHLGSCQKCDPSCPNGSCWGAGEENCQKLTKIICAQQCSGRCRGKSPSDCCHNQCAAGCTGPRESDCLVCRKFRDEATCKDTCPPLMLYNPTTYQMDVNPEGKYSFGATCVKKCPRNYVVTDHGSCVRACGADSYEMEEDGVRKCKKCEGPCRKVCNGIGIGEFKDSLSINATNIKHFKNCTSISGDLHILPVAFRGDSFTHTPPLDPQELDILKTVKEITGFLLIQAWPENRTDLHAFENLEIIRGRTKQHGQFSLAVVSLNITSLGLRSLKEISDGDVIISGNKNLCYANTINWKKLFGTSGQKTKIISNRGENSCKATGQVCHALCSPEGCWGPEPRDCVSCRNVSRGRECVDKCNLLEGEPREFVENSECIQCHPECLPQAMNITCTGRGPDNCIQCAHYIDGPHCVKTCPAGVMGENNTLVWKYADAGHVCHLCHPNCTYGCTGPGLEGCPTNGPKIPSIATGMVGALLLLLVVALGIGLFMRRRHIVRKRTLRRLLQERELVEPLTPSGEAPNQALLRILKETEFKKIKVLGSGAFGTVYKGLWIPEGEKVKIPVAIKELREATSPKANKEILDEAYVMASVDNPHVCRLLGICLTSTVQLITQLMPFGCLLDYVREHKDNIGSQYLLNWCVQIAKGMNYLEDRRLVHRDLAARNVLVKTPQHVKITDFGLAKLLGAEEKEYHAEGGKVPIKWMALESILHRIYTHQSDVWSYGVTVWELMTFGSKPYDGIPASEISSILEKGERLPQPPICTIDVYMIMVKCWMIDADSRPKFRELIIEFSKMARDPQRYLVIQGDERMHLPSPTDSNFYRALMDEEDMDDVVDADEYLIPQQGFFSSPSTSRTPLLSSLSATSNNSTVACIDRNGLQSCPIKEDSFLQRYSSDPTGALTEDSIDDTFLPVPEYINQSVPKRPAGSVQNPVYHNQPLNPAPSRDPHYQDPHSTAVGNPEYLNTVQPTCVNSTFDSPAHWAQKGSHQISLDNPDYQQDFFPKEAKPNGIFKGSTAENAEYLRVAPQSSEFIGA

| Compound | inhibition |
| --- | --- |
| NCCc1cc(O)c(O)c(SC[C@H](NC(=O)CC[C@H](N)C(=O)O)C(=O)NCC(=O)O)c1 | 1 |
| C[C@@](Cc1cc(O)c(O)c(SC[C@H](NC(=O)CC[C@H](N)C(=O)O)C(=O)NCC(=O)O)c1)(NC(=O)CCN)C(=O)O | 5.2 |
| NCCC(=O)N[C@H](Cc1cc(O)c(O)c(SC[C@H](NC(=O)CC[C@H](N)C(=O)O)C(=O)NCC(=O)O)c1)C(=O)O | 8.2 |
| NCCC(=O)N[C@@H](Cc1cc(O)c(O)c(SC[C@H](NC(=O)CC[C@H](N)C(=O)O)C(=O)NCC(=O)O)c1)C(=O)O | 2.2 |
| NCCC(=O)NCCc1cc(O)c(O)c(SC[C@H](NC(=O)CC[C@H](N)C(=O)O)C(=O)NCC(=O)O)c1 | 4.9 |
| NCCc1cc(SC[C@H](NC(=O)CC[C@H](N)C(=O)O)C(=O)NCC(=O)O)c(O)c(O)c1SC[C@@H](NC(=O)CC[C@@H](N)C(=O)O)C(=O)NCC(=O)O | 7.6 |

Second part, the compound after the results:

| inhibition | Compound |
| --- | --- |
| 4.4 | N[C@@H](CCC(=O)N[C@@H](CSc1cc(C[C@H](N)C(=O)O)cc(O)c1O)C(=O)NCC(=O)O)C(=O)O |
| 0 | N[C@H](Cc1cc(O)c(O)c(SC[C@H](N)C(=O)O)c1)C(=O)O |
| 0 | N[C@H](Cc1cc(O)c(O)c(SC[C@H](NC(=O)CC[C@H](N)C(=O)O)C(=O)NCC(=O)O)c1)C(=O)O |
| 2.9 | N[C@@H](CSc1cc(C[C@H](N)C(=O)O)cc(O)c1O)C(=O)O |
